Experimental data reported in patent publication US20240108634A1, “COMPOSITIONS AND METHODS FOR INHIBITING YAP” (The United States Government as represented by the …, priority 2021, published 2024).

Legend:
[1] = molecular target: T1, full-length human YAP1 (Homo sapiens, UniProt P46937); test: Inhibitor-coupled bead binding of recombinant HA-tagged YAP; settings: immunoblot of bound HA-YAP
T1 construct: purified recombinant HA-tagged full-length human YAP1; made in house
Procedure: FIGS. 1A-G show the identification of a YAP1-TEAD1 binding interface inhibitor. […] The Gal4 DBD was fused to residues 50-171 of human YAP1 and the Gal4 AD was fused to residues 194-411 of human TEAD1. These fusions were expressed in yeast containing reporters harboring Gal4 upstream activating sequences (UAS). […] Yeast expressing either p53-DBD and SV40 large T antigen-AD fusions or YAP1-DBD and TEAD1-AD fusions were plated on selective media. Compounds were pinned onto the plate surfaces by robotic transfer and subsequently examined for halo formation (indicated by red circles). […] Pull-down products were analyzed by SDS-PAGE and silver staining. […] Raw binding sensorgrams obtained at each concentration were fitted to a 1:1 binding model and Kon, Koff and KD were calculated by simultaneous non-linear regression analyses.
Protein and mRNA analyses, immunoprecipitation, in vitro bead-coupled inhibitor binding assays and HPLC analyses. […] Antigen-antibody complexes were detected using appropriate horseradish peroxidase-conjugated secondary antibodies (GE Healthcare) and enhanced chemiluminescence (Amersham ECL Prime). […] For quantitative RT-PCR, extraction of RNA was performed using Trizol® (Life Technologies). Total RNA was then quantified and integrity assessed using an Agilent 2100 Bioanalyzer (Agilent Technology). […]

[2] = molecular target: T2, YAP-TEAD interaction (Homo sapiens, UniProt P46937); test: Co-immunoprecipitation of myc-TEAD with HA-YAP from treated LN229 cells; format: cell-based; settings: LN229 cells, 24 h
T2 construct: expressed in transfected cells; host or cells: LN229
T2 sequence (P46937 whole entry): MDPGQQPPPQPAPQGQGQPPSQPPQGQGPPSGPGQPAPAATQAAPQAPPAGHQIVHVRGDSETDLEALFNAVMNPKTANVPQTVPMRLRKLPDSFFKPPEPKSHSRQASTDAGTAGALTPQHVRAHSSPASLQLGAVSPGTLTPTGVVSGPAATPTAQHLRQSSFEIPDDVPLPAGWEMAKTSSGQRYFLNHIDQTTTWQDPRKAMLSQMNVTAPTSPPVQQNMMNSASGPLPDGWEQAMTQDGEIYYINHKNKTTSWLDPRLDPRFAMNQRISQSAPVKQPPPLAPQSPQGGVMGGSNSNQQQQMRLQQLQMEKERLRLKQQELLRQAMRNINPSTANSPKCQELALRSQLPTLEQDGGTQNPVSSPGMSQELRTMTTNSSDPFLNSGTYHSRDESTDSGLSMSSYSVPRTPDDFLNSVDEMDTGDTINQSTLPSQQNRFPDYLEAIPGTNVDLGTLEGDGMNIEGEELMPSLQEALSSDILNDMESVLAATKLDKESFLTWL
Procedure: FIGS. 1A-G show the identification of a YAP1-TEAD1 binding interface inhibitor. […] The Gal4 DBD was fused to residues 50-171 of human YAP1 and the Gal4 AD was fused to residues 194-411 of human TEAD1. These fusions were expressed in yeast containing reporters harboring Gal4 upstream activating sequences (UAS). […] Yeast expressing either p53-DBD and SV40 large T antigen-AD fusions or YAP1-DBD and TEAD1-AD fusions were plated on selective media. Compounds were pinned onto the plate surfaces by robotic transfer and subsequently examined for halo formation (indicated by red circles). Compounds inhibiting YAP1-TEAD1 mediated growth on selective media while having no effect on p53-T antigen mediated yeast growth were considered specific. Compounds which blocked the growth of both strains were considered nonspecific and were classified as having general antifungal properties. […] His-tagged YAP (amino acids 50-171 of Accession No. NP_006097) was used in a GST pull-down assay using GST-TEAD (amino acids 194-411 of Accession No. NP_068780) immobilized on glutathione resin. Pull-down products were analyzed by SDS-PAGE and silver staining. […] Cells treated with antimycin A are shown as a negative control. […] Raw binding sensorgrams obtained at each concentration were fitted to a 1:1 binding model and Kon, Koff and KD were calculated by simultaneous non-linear regression analyses.
Protein and mRNA analyses, immunoprecipitation, in vitro bead-coupled inhibitor binding assays and HPLC analyses. […] Antigen-antibody complexes were detected using appropriate horseradish peroxidase-conjugated secondary antibodies (GE Healthcare) and enhanced chemiluminescence (Amersham ECL Prime). […] For quantitative RT-PCR, extraction of RNA was performed using Trizol® (Life Technologies). Total RNA was then quantified and integrity assessed using an Agilent 2100 Bioanalyzer (Agilent Technology). […] SYBR® Green quantitative PCR (Millipore Sigma) was performed in triplicate in 96-well optical plates on an ABI Prism 7000 Sequence Detection System (Life Technologies) according to the manufacturer's instructions. […]

T1 sequence (P46937 whole entry): as above

Compound: COc1ccc(CN2C(=O)c3ccccc3C2=O)c(OC)c1 [IRES-J007, reference compound]
- Binding of YAP to compound-coupled beads [1]: no significant binding

Compound: verteporfin
- Cell treatment concentration required for observable blockade of the interaction [2]: 4 µM
- Inhibition of HA-YAP/myc-TEAD interaction at equimolar concentrations ([2]; equimolar to NSC682769): ineffective
